Structures can show the parent of a compound that is named as a salt. Where two headings read alike, the source gives them in different places.
How the values were obtained:
[1] = Solubility by serial addition of solvent to a known mass of the TZD until full dissolution; format: physicochemical
Description: The solubility of rosiglitazone maleate and pioglitazone hydrochloride in various solvents was tested by a standard method, i.e., serial addition of solvent to a known mass of the TZD compound, until full dissolution was observed. Additional solubility results were obtained from the literature. […] This phenomenon occurred in formulations comprising water, as well as formulations lacking water. […] Next, the solubility of troglitazone in various solvents was tested by a standard method, i.e., serial addition of solvent to a known mass of troglitazone, until full dissolution was observed. Additional solubility results were obtained from the literature.

[2] = cited from earlier work; for solubility in ethanol: background statement, temperature not stated
[3] = solvent: 70% ethanol, 27% PG, 3% oleic acid
[4] = solvent: 70% ethanol, 30% propylene glycol (PG)

Solubility at 25° C. ([1]; solvent: 65% ethanol, 25% PG, 7% water, 3% oleic acid) [mg/g] | Solubility at 25° C. [1, 3] [mg/g] | increase of solubility in the vehicle on addition of oleic acid ([1]; about 3% w/w oleic acid added to ethanol-based vehicle) | increase of solubility in the vehicle on addition of oleic acid ([1]; about 3% w/w oleic acid added to isopropanol-based vehicle) | Solubility at 25° C. ([1]; solvent: 63% ethanol, 24% PG, 10% water, 3% oleic acid) [mg/g] | Solubility at 25° C. [1, 4] [mg/g] | Solubility at 25° C. ([1]; solvent: 70% isopropyl alcohol, 27% PG, 3% oleic acid) [mg/g] | Solubility at 25° C. ([1]; solvent: 70% isopropyl alcohol, 30% PG) [mg/g] | SMILES | solubility in ethanol [2] | Solubility at 25° C. ([2]; solvent: Ethanol) | Solubility at 25° C. ([2]; solvent: Water)
~9 | ~9 | – | – | – | – | – | – | CCc1ccc(CCOc2ccc(CC3SC(=O)NC3=O)cc2)nc1 (stereo not drawn) [pioglitazone hydrochloride] | ~4000 µg/mL | 4 mg/mL | 0.05 mg/mL
– | ~10 | over 75 fold | about 3 fold | ~10 | 0.13 | 1.2 | 0.4 | CN(CCOc1ccc(CC2SC(=O)NC2=O)cc1)c1ccccn1 (stereo not drawn) [rosiglitazone maleate] | about 0.25 mg/mL | 0.25 mg/mL | –
– | 0.6 | – | – | – | 0.3 | – | – | Cc1c(C)c2c(c(C)c1O)CCC(C)(COc1ccc(CC3SC(=O)NC3=O)cc1)O2 (stereo not drawn) [troglitazone] | – | 0.3 mg/mL^b | 0.02 mg/mL^a
